Data reported in patent US12667572B2, “Tricyclic compounds useful in the treatment of cancer, autoimmune and inflammatory disorders” (SCHRÖDINGER, INC., priority 2021, dated 2026).

target: T1, full-length MALT1 protein His-MALT1(1-824) (Homo sapiens, UniProt Q9UDY8); experiment: MALT1 protease assay, Assay 1 (2 nM MALT1, Ac-LRSR-AMC substrate); type: biochemical; settings: 2 nM MALT1, 50 μM Ac-LRSR-AMC, 2 h pre-incubation, 8 hr incubation at RT
T1 construct: full-length MALT1 protein His-MALT1(1-824); His (N); made in house; host or cells: baculovirus-infected insect cells
T1 sequence (Q9UDY8 1-824): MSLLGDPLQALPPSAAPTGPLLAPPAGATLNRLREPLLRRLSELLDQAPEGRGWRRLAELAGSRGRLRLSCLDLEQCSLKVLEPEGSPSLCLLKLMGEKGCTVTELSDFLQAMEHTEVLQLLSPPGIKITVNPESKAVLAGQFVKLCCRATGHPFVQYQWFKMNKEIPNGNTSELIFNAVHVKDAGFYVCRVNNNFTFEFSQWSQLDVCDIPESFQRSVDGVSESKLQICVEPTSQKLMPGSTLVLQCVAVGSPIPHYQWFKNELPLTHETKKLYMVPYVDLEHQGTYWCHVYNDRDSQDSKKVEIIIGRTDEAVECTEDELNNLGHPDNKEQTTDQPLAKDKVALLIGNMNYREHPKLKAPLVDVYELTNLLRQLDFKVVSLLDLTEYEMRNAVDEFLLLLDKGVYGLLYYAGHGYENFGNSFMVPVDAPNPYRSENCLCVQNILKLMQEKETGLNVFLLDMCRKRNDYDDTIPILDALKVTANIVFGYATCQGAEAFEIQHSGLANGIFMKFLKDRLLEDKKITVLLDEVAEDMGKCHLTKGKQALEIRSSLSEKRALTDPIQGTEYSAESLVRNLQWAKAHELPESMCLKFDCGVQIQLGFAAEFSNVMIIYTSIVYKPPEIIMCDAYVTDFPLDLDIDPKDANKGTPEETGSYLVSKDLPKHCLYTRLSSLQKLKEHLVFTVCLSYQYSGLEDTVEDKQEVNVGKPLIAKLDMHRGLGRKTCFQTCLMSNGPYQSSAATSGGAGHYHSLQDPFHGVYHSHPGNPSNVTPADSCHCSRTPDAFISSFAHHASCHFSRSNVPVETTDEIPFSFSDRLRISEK
Protocol: MALT1 protease activity was assessed in an in vitro assay using a tetrapeptide as substrate and full-length MALT1 protein His-MALT1(1-824) purified from baculovirus-infected insect cells. The tetrapeptide substrate is Ac-LRSR-AMC (SM Biochemicals) with Km measured at around 100 μM.
The final assay buffer includes 1 nM (Assay 2) or 2 nM (Assay 1) of MALT1 full-length protein, 50 μM Ac-LRSR-AMC substrate, 50 mM Tris pH 7.5, 600 mM Sodium Citrate, 1 mM DTT, 1 mM EDTA, and 0.05% BSA in 384-well plate format using black microtiter square well plates (Optiplate 384-F, Perkin Elmer).
Test compounds were dissolved in 100% DMSO at stock of 10 mM, with final DMSO concentration 0.1%. Test compounds were pre-incubated with MALT1 protein for 2 h at room temperature. Substrate was added after the pre-incubation and fluorescence signal was measured using Envision at excitation 355 nm and emission 460 nm after 8 hr incubation at RT. Increase in the assay signal was linear over this period and proportional with increase in the enzyme content.
The fluorescence units were transformed to percentage of remaining activity by using the high control (HC, median of fluorescence signal from wells containing MALT1 protein, substrate, and DMSO) and low control (LC, median of fluorescence signal from wells with substrate only) with the formula below: […]
IC50 and Hill coefficients were obtained using Graph Pad Prism (Graph Pad software, Inc, USA) with non-linear regression analysis.

IC50 | Compound
≥ 1000 nM | CC1(C)C[C@@H](C(=O)Nc2cnc(-n3cc(C#N)cn3)c(Cl)c2)c2cnc3cc(Cl)nn3c21 (single isomer, unassigned) [Example 14, 2-chloro-N-(5-chloro-6-(4-cyano-1H-pyrazol-1-yl)pyridin-3-yl)-8,8-dimethyl-7,8-dihydro-6H-cyclopenta[e]pyrazolo[1,5-a]pyrimidine-6-carboxamide]
100 to 1000 nM | CC1(C)CC(C(=O)Nc2cnc(-n3cc(C#N)cn3)c(Cl)c2)c2cnc3cc(Cl)nn3c21 (single isomer, unassigned) [Example 15, 2-chloro-N-(5-chloro-6-(4-cyano-1H-pyrazol-1-yl)pyridin-3-yl)-8,8-dimethyl-7,8-dihydro-6H-cyclopenta[e]pyrazolo[1,5-a]pyrimidine-6-carboxamide]
≥ 1000 nM | CC1(C)C[C@@H](C(=O)Nc2cnc(N3CCCC3)c(Cl)c2)c2cnc3cc(Cl)nn3c21 (single isomer, unassigned) [Example 16, 2-chloro-N-(5-chloro-6-(pyrrolidin-1-yl)pyridin-3-yl)-8,8-dimethyl-7,8-dihydro-6H-cyclopenta[e]pyrazolo[1,5-a]pyrimidine-6-carboxamide]
10 to 100 nM | CC1(C)C[C@H](C(=O)Nc2cnc(N3CCCC3)c(Cl)c2)c2cnc3cc(Cl)nn3c21 (single isomer, unassigned) [Example 17, 2-chloro-N-(5-chloro-6-(pyrrolidin-1-yl)pyridin-3-yl)-8,8-dimethyl-7,8-dihydro-6H-cyclopenta[e]pyrazolo[1,5-a]pyrimidine-6-carboxamide]
≥ 1000 nM | CCc1cc2ncc3c(n2n1)C(C)(C)C[C@H]3C(=O)Nc1cnc(-n2nccn2)c(Cl)c1 (single isomer, unassigned) [Example 20, N-(5-chloro-6-(2H-1,2,3-triazol-2-yl)pyridin-3-yl)-2-ethyl-8,8-dimethyl-7,8-dihydro-6H-cyclopenta[e]pyrazolo[1,5-a]pyrimidine-6-carboxamide]
100 to 1000 nM | CC(C)(O)c1cnn(-c2ncc(NC(=O)C3CC(C)(C)c4c3cnc3cc(Cl)nn43)cc2Cl)n1 (single isomer, unassigned) [Example 22, 2-chloro-N-(5-chloro-6-(4-(2-hydroxypropan-2-yl)-2H-1,2,3-triazol-2-yl)pyridin-3-yl)-8,8-dimethyl-7,8-dihydro-6H-cyclopenta[e]pyrazolo[1,5-a]pyrimidine-6-carboxamide]
≥ 1000 nM | CC1(C)C[C@@H](C(=O)Nc2cnc(-n3nccn3)c(Cl)c2)c2cnc3cc(C(F)F)nn3c21 (single isomer, unassigned) [Example 24, N-(5-chloro-6-(2H-1,2,3-triazol-2-yl)pyridin-3-yl)-2-(difluoromethyl)-8,8-dimethyl-7,8-dihydro-6H-cyclopenta[e]pyrazolo[1,5-a]pyrimidine-6-carboxamide]
≥ 1000 nM | CC1(C)C[C@@H](C(=O)Nc2cnc([C@@H]3CCCO3)c(Cl)c2)c2cnc3cc(Cl)nn3c21 (single isomer, unassigned) [Example 26, 2-chloro-N-(5-chloro-6-(tetrahydrofuran-2-yl)pyridin-3-yl)-8,8-dimethyl-7,8-dihydro-6H-cyclopenta[e]pyrazolo[1,5-a]pyrimidine-6-carboxamide]
≥ 1000 nM | CC1(C)C[C@@H](C(=O)Nc2cnc([C@H]3CCCO3)c(Cl)c2)c2cnc3cc(Cl)nn3c21 (single isomer, unassigned) [Example 27, 2-chloro-N-(5-chloro-6-(tetrahydrofuran-2-yl)pyridin-3-yl)-8,8-dimethyl-7,8-dihydro-6H-cyclopenta[e]pyrazolo[1,5-a]pyrimidine-6-carboxamide]
100 to 1000 nM | CC1(C)C[C@H](C(=O)Nc2cnc([C@@H]3CCCO3)c(Cl)c2)c2cnc3cc(Cl)nn3c21 (single isomer, unassigned) [Example 28, 2-chloro-N-(5-chloro-6-(tetrahydrofuran-2-yl)pyridin-3-yl)-8,8-dimethyl-7,8-dihydro-6H-cyclopenta[e]pyrazolo[1,5-a]pyrimidine-6-carboxamide]
≥ 1000 nM | CC1(C)C[C@@H](C(=O)Nc2cnc(-n3ncc(CO)n3)c(Cl)c2)c2cnc3cc(Cl)nn3c21 (single isomer, unassigned) [Example 30, 2-chloro-N-(5-chloro-6-(4-(hydroxymethyl)-2H-1,2,3-triazol-2-yl)pyridin-3-yl)-8,8-dimethyl-7,8-dihydro-6H-cyclopenta[e]pyrazolo[1,5-a]pyrimidine-6-carboxamide]
≥ 1000 nM | CC1(C)C[C@@H](C(=O)Nc2cnc(-n3nccn3)c(Cl)c2)c2cnc3cc(F)nn3c21 (single isomer, unassigned) [Example 32, N-(5-chloro-6-(2H-1,2,3-triazol-2-yl)pyridin-3-yl)-2-fluoro-8,8-dimethyl-7,8-dihydro-6H-cyclopenta[e]pyrazolo[1,5-a]pyrimidine-6-carboxamide]
≥ 1000 nM | Cn1cnc(-c2ncc(NC(=O)[C@@H]3CC(C)(C)c4c3cnc3cc(Cl)nn43)cc2Cl)c1 (single isomer, unassigned) [Example 34, 2-chloro-N-(5-chloro-6-(1-methyl-1H-imidazol-4-yl)pyridin-3-yl)-8,8-dimethyl-7,8-dihydro-6H-cyclopenta[e]pyrazolo[1,5-a]pyrimidine-6-carboxamide]
10 to 100 nM | C[C@@]1(C(F)(F)F)C[C@@H](C(=O)Nc2cnc(-n3nccn3)c(Cl)c2)c2cnc3cc(Cl)nn3c21 (single isomer, unassigned) [Example 39, 2-chloro-N-(5-chloro-6-(2H-1,2,3-triazol-2-yl)pyridin-3-yl)-8-methyl-8-(trifluoromethyl)-7,8-dihydro-6H-cyclopenta[e]pyrazolo[1,5-a]pyrimidine-6-carboxamide]
10 to 100 nM | CC1(C)CCC(C(=O)Nc2cnc(-n3nccn3)c(Cl)c2)c2cnc3cc(Cl)nn3c21 (stereo not shown) [Example 7, 2-chloro-N-(5-chloro-6-(2H-1,2,3-triazol-2-yl)pyridin-3-yl)-9,9-dimethyl-6,7,8,9-tetrahydropyrazolo[1,5-a]quinazoline-6-carboxamide]
100 to 1000 nM | Cc1cc2ncc3c(n2n1)C1(CC1)CC3C(=O)Nc1cnc(-n2nccn2)c(Cl)c1 (stereo not shown) [Example 18, N-(5-chloro-6-(2H-1,2,3-triazol-2-yl)pyridin-3-yl)-2-methyl-6,7-dihydrospiro[cyclopenta[e]pyrazolo[1,5-a]pyrimidine-8,1′-cyclopropane]-6-carboxamide]
10 to 100 nM | CC1(C)CC(C(=O)Nc2cnc(-n3nccn3)c(Cl)c2)c2cnc3cc(C(F)(F)F)nn3c21 (stereo not shown) [Example 40, N-(5-chloro-6-(2H-1,2,3-triazol-2-yl)pyridin-3-yl)-8,8-dimethyl-2-(trifluoromethyl)-7,8-dihydro-6H-cyclopenta[e]pyrazolo[1,5-a]pyrimidine-6-carboxamide]
100 to 1000 nM | CC1(C)CC(C(=O)Nc2cnc(-n3nccn3)c(Cl)c2)c2ccc3cc(O)nn3c21 (stereo not shown) [Example 41, N-(5-chloro-6-(2H-1,2,3-triazol-2-yl)pyridin-3-yl)-2-hydroxy-8,8-dimethyl-7,8-dihydro-6H-cyclopenta[e]pyrazolo[1,5-a]pyridine-6-carboxamide]
≥ 1000 nM | Cn1nc(-c2ncc(NC(=O)C3CC(C)(C)c4c3cnc3cc(Cl)nn43)cc2Cl)cc1O (stereo not shown) [Example 42, 2-chloro-N-(5-chloro-6-(5-hydroxy-1-methyl-1H-pyrazol-3-yl)pyridin-3-yl)-8,8-dimethyl-7,8-dihydro-6H-cyclopenta[e]pyrazolo[1,5-a]pyrimidine-6-carboxamide]
